Where two headings read alike, the source gives them in different places.
Experiments:
M1 muscarinic receptor = biological target: T1, M1 muscarinic receptor (Homo sapiens, UniProt P11229); assay: Functional mobilization of intracellular calcium (FLIPR) in M1-CHO cells; format: cell-based
T1 construct: expressed in transfected cells; host or cells: CHO (M1-CHO)
T1 sequence (P11229 1-460): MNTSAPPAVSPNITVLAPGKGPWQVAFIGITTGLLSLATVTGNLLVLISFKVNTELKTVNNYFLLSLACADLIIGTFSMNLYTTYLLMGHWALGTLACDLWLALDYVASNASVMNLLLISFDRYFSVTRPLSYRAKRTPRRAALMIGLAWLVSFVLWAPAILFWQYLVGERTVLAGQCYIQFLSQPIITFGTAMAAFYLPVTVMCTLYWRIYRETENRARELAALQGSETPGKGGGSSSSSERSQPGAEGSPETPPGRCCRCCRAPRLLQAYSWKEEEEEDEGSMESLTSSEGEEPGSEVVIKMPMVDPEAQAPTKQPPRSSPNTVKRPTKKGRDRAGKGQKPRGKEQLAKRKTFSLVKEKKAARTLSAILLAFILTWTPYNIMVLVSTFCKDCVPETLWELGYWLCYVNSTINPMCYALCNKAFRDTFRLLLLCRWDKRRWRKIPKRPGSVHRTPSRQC
Procedure, shortened: (§1)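 Steps: seed M1- or M4-CHO cells 18-24 hrs ahead; load calcium dye with 1 mM probenecid; add test compound (0.5% DMSO final), either alone for agonism or 15 min before EC80 carbachol for inhibition; record FLIPR fluorescence for 60 sec.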

M4 muscarinic receptor = biological target: T2, M4 muscarinic receptor (Homo sapiens, UniProt P08173); assay: Functional mobilization of intracellular calcium (FLIPR) in M4-CHO cells; format: cell-based
T2 construct: expressed in transfected cells; host or cells: CHO (M4-CHO)
T2 sequence (P08173 1-479): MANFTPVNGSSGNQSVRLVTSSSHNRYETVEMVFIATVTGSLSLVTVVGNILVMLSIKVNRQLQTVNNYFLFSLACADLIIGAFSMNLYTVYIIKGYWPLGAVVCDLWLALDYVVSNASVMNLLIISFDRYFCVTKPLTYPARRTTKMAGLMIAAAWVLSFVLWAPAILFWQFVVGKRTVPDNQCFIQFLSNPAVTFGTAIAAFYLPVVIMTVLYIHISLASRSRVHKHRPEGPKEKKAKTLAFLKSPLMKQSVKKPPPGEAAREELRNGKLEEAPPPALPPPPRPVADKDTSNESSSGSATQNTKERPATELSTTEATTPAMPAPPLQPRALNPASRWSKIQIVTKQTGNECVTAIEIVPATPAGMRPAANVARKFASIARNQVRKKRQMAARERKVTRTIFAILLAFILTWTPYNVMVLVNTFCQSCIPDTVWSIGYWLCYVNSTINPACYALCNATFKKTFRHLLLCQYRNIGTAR
Procedure, shortened: as §1

[1] = M1-CHO cells, calcium mobilization (FLIPR)
[2] = M1-CHO cells, calcium mobilization (FLIPR), read-out: M1 Efficacy
[3] = M4-CHO cells, calcium mobilization (FLIPR)
[4] = M4-CHO cells, calcium mobilization (FLIPR), read-out: M4 Efficacy
[5] = Table 4, 100% efficacy is the maximum response obtained with the Carbachol control
[6] = Table 4, modulating M1 receptor
[7] = Table 4, modulating M4 receptor
[8] = M1 receptor, calcium mobilization
[9] = M1 receptor, calcium mobilization, read-out: M1 Efficacy
[10] = M4 receptor, calcium mobilization
[11] = M4 receptor, calcium mobilization, read-out: M4 Efficacy
[12] = Table 4, M1 receptor, calcium mobilization (FLIPR)
[13] = Table 4, M4 receptor, calcium mobilization (FLIPR)

Row | Structure (SMILES) | Emax (M1 muscarinic receptor; [5]) [%] | M1 Activity (M1 muscarinic receptor; [6]) | Emax (M4 muscarinic receptor; [5]) [%] | M4 Activity (M4 muscarinic receptor; [7]) | M1 Activity (M1 muscarinic receptor; [8]) | Emax (M1 muscarinic receptor; [9]) [%] | M4 Activity (M4 muscarinic receptor; [10]) | Emax (M4 muscarinic receptor; [11]) [%] | further results
1 | CC(=O)N1CC2(CCN(C3CCN(C(=O)OC(C)C)CC3)CC2)c2cc(C)ccc21 [compound 380] | – | – | – | – | – | – | – | – | EC50 (M1 muscarinic receptor; [1]): < 100 nM; Emax (M1 muscarinic receptor; [2]): 65 to 85%; EC50 (M4 muscarinic receptor; [3]): 100 to 1000 nM; Emax (M4 muscarinic receptor; [4]): 65 to 85%
2 | COCCN1CC2(CCN(C3CCN(C(=O)OC(C)C)CC3)CC2)c2cc(F)ccc21 [compound 571] | 25 to 100 | xxx (activity was measured to be less than 2.0 μM) | 25 to 100 | xxx (activity was measured to be less than 2.0 μM) | – | – | – | – | –
3 | CC(=O)N1CC2(CCN(C3CCC(C(C)C)CC3)CC2)c2cc(F)ccc21 (stereo not shown) [compound 226] | – | – | – | – | x (activity was measured to be greater than 1.0 μM) | < 65 | x (activity was measured to be greater than 1.0 μM) | < 65 | –
4 | CCOC(=O)N1CCC(N2CCC3(CC2)CN(C(=O)O[C@H]2CCOC2)c2ccc(F)cc23)CC1 [compound 428] | – | – | – | – | – | – | – | – | EC50 (M1 muscarinic receptor; [1]): 100 to 1000 nM; Emax (M1 muscarinic receptor; [2]): < 65%; EC50 (M4 muscarinic receptor; [3]): > 1000 nM; Emax (M4 muscarinic receptor; [4]): < 65%
5 | O=C(OC1CCC1)N1C2CCC1CC(N1CCC3(CCc4ccccc43)CC1)C2 (stereo not shown) [compound 68] | – | – | – | – | xx (activity was measured to be between 0.1 μM and 1.0 μM) | < 65 | x (activity was measured to be greater than 1.0 μM) | < 65 | –
6 | CC(=O)N[C@H]1CC2(CCN(C3C4CC5CC(C4)CC3C5)CC2)c2ccccc21 (stereo partly shown) [compound 4] | – | – | – | – | xxx (activity was measured to be less than 0.1 μM) | < 65 | x (activity was measured to be greater than 1.0 μM) | < 65 | –
7 | CC(=O)NC1CCC2(CCN(CCC3CCCN(C(C)=O)C3)CC2)c2ccccc21 (stereo not shown) [compound 874] | 25 to 100 | – | < 25 | – | – | – | – | – | M1 Activity (M1 muscarinic receptor; [12]): xx (activity was measured to be between 2.0 μM and 5.0 μM); M4 Activity (M4 muscarinic receptor; [13]): x (activity was measured to be greater than 5.0 μM)
8 | CC(=O)N[C@H]1CC2(CCN(CC3CCN(C(=O)O[C@@H]4CCOC4)CC3)CC2)c2ccccc21 [compound 684] | < 25 | x (activity was measured to be greater than 5.0 μM) | < 25 | x (activity was measured to be greater than 5.0 μM) | – | – | – | – | –
9 | CC(=O)N[C@H]1CC2(CCN(C3CCC(C(C)(C)C)CC3)CC2)c2ccccc21 (stereo partly shown) [compound 638] | < 25 | x (activity was measured to be greater than 5.0 μM) | < 25 | x (activity was measured to be greater than 5.0 μM) | – | – | – | – | –
10 | CCOC(=O)N1CCC(N2CCC3(CC2)CN(C(=O)CCC(C)=O)c2ccc(F)cc23)CC1 [compound 851] | 25 to 100 | – | 25 to 100 | – | – | – | – | – | M1 Activity (M1 muscarinic receptor; [12]): xxx (activity was measured to be less than 2.0 μM); M4 Activity (M4 muscarinic receptor; [13]): xxx (activity was measured to be less than 2.0 μM)
11 | CCOC(=O)N1CCC(N2CCC3(CC2)CN(C(C)=O)c2ccc(-c4cccc(OC)c4)cc23)CC1 [compound 648] | 25 to 100 | xx (activity was measured to be between 2.0 μM and 5.0 μM) | < 25 | x (activity was measured to be greater than 5.0 μM) | – | – | – | – | –
12 | CCOC(=O)N1CCC(CN2CCC3(CC2)C(=O)Nc2ccccc23)CC1 [compound 319] | – | – | – | – | xx (activity was measured to be between 0.1 μM and 1.0 μM) | < 65 | x (activity was measured to be greater than 1.0 μM) | < 65 | –
13 | CC(=O)N[C@H]1CCC2(CCN(CCC3CCCN(C(=O)OC(C)(C)C)C3)CC2)c2ccccc21 (stereo partly shown) [compound 819] | 25 to 100 | – | < 25 | – | – | – | – | – | M1 Activity (M1 muscarinic receptor; [12]): xxx (activity was measured to be less than 2.0 μM); M4 Activity (M4 muscarinic receptor; [13]): x (activity was measured to be greater than 5.0 μM)
14 | CC(=O)N1CC2(CCN(C3CCN(c4nc(C)ns4)CC3)CC2)c2cc(F)ccc21 [compound 943] | 25 to 100 | – | 25 to 100 | – | – | – | – | – | M1 Activity (M1 muscarinic receptor; [12]): xxx (activity was measured to be less than 2.0 μM); M4 Activity (M4 muscarinic receptor; [13]): xxx (activity was measured to be less than 2.0 μM)
15 | C#CCCOC(=O)N1CCC(N2CCC3(CC2)CN(C(C)=O)c2ccccc23)CC1 [compound 989] | 25 to 100 | – | < 25 | – | – | – | – | – | M1 Activity (M1 muscarinic receptor; [12]): xxx (activity was measured to be less than 2.0 μM); M4 Activity (M4 muscarinic receptor; [13]): x (activity was measured to be greater than 5.0 μM)
16 | CCOC(=O)N1CCC(N2CCC3(CC2)CN(C(=O)N2CCCC2)c2ccccc23)CC1 [compound 959] | 25 to 100 | – | 25 to 100 | – | – | – | – | – | M1 Activity (M1 muscarinic receptor; [12]): xx (activity was measured to be between 2.0 μM and 5.0 μM); M4 Activity (M4 muscarinic receptor; [13]): xxx (activity was measured to be less than 2.0 μM)
17 | CCCCNC(=O)N1CC2(CCN(C3CCN(C(=O)OCC)CC3)CC2)c2ccccc21 [compound 721] | 25 to 100 | xxx (activity was measured to be less than 2.0 μM) | 25 to 100 | xxx (activity was measured to be less than 2.0 μM) | – | – | – | – | –
18 | CC(=O)N[C@H]1CC2(CCN(Cc3ccoc3)CC2)c2ccccc21 [compound 530] | < 25 | x (activity was measured to be greater than 5.0 μM) | < 25 | x (activity was measured to be greater than 5.0 μM) | – | – | – | – | –
19 | CC(C)OC(=O)N1CCC(N2CCC3(CC2)CN(C(=O)N(C)C)c2ccc(F)cc23)CC1 [compound 54] | – | – | – | – | xxx (activity was measured to be less than 0.1 μM) | > 85 | xx (activity was measured to be between 0.1 μM and 1.0 μM) | 65 to 85 | –
20 | CC(=O)N[C@H]1CC2(CCN(CC3CC4CCC3CC4)CC2)c2ccccc21 (stereo partly shown) [compound 29] | – | – | – | – | xxx (activity was measured to be less than 0.1 μM) | > 85 | xxx (activity was measured to be less than 0.1 μM) | > 85 | –
21 | CC(=O)N1CC2(CCN(C[C@H]3CCN(c4cnccn4)C3)CC2)c2c(C)cccc21 [compound 860] | 25 to 100 | – | 25 to 100 | – | – | – | – | – | M1 Activity (M1 muscarinic receptor; [12]): xxx (activity was measured to be less than 2.0 μM); M4 Activity (M4 muscarinic receptor; [13]): xxx (activity was measured to be less than 2.0 μM)
22 | CCOC(=O)N1C2CCC1CC(N1CCC3(CC1)CN(C(=O)c1ccc(F)cc1)c1ccc(F)cc13)C2 (stereo not shown) [compound 222] | – | – | – | – | x (activity was measured to be greater than 1.0 μM) | < 65 | x (activity was measured to be greater than 1.0 μM) | < 65 | –
23 | CC(=O)N[C@H]1CC2(CCN(C3CCC(C)CC3)CC2)c2ccccc21 (stereo partly shown) [compound 280] | – | – | – | – | x (activity was measured to be greater than 1.0 μM) | 65 to 85 | x (activity was measured to be greater than 1.0 μM) | 65 to 85 | –
24 | CCOC(=O)N1CCC(N2CCC3(CC2)CN(C2CCCCC2=O)c2ccc(F)cc23)CC1 (stereo not shown) [compound 751] | 25 to 100 | xxx (activity was measured to be less than 2.0 μM) | 25 to 100 | xxx (activity was measured to be less than 2.0 μM) | – | – | – | – | –
25 | CC(=O)N1CC2(CCN(C3CC4CCC(C3)N4C(=O)OCC(C)(C)C)CC2)c2ccccc21 (stereo not shown) [compound 476] | < 25 | x (activity was measured to be greater than 5.0 μM) | < 25 | x (activity was measured to be greater than 5.0 μM) | – | – | – | – | –

From patent publication US7786141B2 (Vertex Pharmaceuticals Incorporated, priority 2004, dated 2010)
